Biological target: T1, CYP11A1 (Homo sapiens, UniProt P05108)
T1 construct: human H295R adrenocortical carcinoma cell line was used as source of enzyme; endogenous in cells; host or cells: H295R human adrenocortical carcinoma cells
T1 sequence (P05108 40-521): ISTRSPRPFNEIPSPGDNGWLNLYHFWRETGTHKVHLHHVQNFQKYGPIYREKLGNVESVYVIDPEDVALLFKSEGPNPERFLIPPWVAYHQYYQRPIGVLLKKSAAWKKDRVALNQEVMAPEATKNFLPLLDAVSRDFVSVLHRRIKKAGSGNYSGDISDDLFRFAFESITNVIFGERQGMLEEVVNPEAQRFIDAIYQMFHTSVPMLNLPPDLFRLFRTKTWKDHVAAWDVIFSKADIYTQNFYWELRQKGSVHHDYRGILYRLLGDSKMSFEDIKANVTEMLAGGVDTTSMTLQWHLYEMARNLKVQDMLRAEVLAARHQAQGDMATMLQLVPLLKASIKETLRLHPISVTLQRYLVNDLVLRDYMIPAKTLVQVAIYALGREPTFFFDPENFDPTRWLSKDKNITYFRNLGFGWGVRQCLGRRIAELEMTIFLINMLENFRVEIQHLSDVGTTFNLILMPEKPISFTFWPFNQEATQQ
Test: CYP11A1 inhibition: modified isocaproic acid release assay (IARA) in H295R cells
Type: cell-based
Conditions: human H295R adrenocortical carcinoma cells treated three days, 3 nM [24,25-3H]-labelled cholesterol, 1% DMSO, 10 concentrations in duplicates; read-out: IC50 of the test compounds on CYP11A1 inhibition
Procedure, shortened: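 Cholesterol side-chain cleavage followed as tritiated isocaproic acid in charcoal-extracted medium, counted by scintillation. Substrate was 3 nM [24,25-3H]-cholesterol on human H295R cells exposed for three days to ten compound concentrations (duplicates, 1% DMSO); IC50 derived.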

Row | Compound | IC50
1 | O=c1cc(CN2CCc3ccccc3C2)occ1OCc1ccc(C2(O)COC2)cc1 [Compound 117, 2-((3,4-Dihydroisoquinolin-2(1H)-yl)methyl)-5-((4-(3-hydroxyoxetan-3-yl)-benzyl)oxy)-4H-pyran-4-one] | 0.301 to 2 µM
2 | N#Cc1ccc(COc2coc(CN3CCc4ccccc4C3)cc2=O)cc1Cl [Compound 118, 2-Chloro-4-(((6-((3,4-dihydroisoquinolin-2(1H)-yl)methyl)-4-oxo-4H-pyran-3-yl)oxy)methyl)benzonitrile] | 0.301 to 2 µM
3 | CN(C)C(=O)c1ccc(COc2coc(CN3CCc4ccccc4C3)cc2=O)cc1 [Compound 119, 4-(((6-((3,4-Dihydroisoquinolin-2(1H)-yl)methyl)-4-oxo-4H-pyran-3-yl)oxy)-methyl)-N,N-dimethylbenzamide] | 0.301 to 2 µM
4 | O=c1cc(CN2Cc3ccccc3C2)occ1OCc1ccc(CO)cc1 [Compound 123, 5-((4-(Hydroxymethyl)benzyl)oxy)-2-(isoindolin-2-ylmethyl)-4H-pyran-4-one] | 0.301 to 2 µM
5 | CC1c2ccccc2CCN1Cc1cc(=O)c(OCc2ccc(C(=O)N3CCCC3)cc2)co1 (stereo not shown) [Compound 125, 2-((1-Methyl-3,4-dihydroisoquinolin-2(1H)-yl)methyl)-5-((4-(pyrrolidine-1-carbonyl)benzyl)oxy)-4H-pyran-4-one] | 0.301 to 2 µM
6 | C[C@H]1c2ccccc2CN1Cc1cc(=O)c(OCc2ccc(C(=O)N(C)C)cc2)co1 [Compound 132, (S)—N,N-Dimethyl-4-(((6-((1-methylisoindolin-2-yl)methyl)-4-oxo-4H-pyran-3-yl)oxy)methyl)benzamide] | 0.301 to 2 µM
7 | C[C@@H]1c2ccccc2CN1Cc1cc(=O)c(OCc2ccc(C(=O)N(C)C)cc2)co1 [Compound 133, (R)—N,N-Dimethyl-4-(((6-((1-methylisoindolin-2-yl)methyl)-4-oxo-4H-pyran-3-yl)oxy)methyl)benzamide] | 0.301 to 2 µM
8 | CC(C)(C)NC(=O)c1ccc(COc2coc(CN3CCc4ccccc4C3)cc2=O)cc1 [Compound 135, N-(tert-Butyl)-4-(((6-((3,4-dihydroisoquinolin-2(1H)-yl)methyl)-4-oxo-4H-pyran-3-yl)oxy)methyl)benzamide] | 0.15 to 0.3 µM
9 | CN(C)C(=O)Cc1ccc(COc2coc(CN3Cc4ccccc4C3)cc2=O)cc1 [Compound 136, 2-(4-(((6-(Isoindolin-2-ylmethyl)-4-oxo-4H-pyran-3-yl)oxy)methyl)phenyl)-N,N-dimethylacetamide] | 0.15 to 0.3 µM
10 | CC(C)NC(=O)c1ccc(COc2coc(CN3Cc4ccccc4C3)cc2=O)cc1 [Compound 140, 4-(((6-(Isoindolin-2-ylmethyl)-4-oxo-4H-pyran-3-yl)oxy)methyl)-N-isopropylbenzamide] | 0.15 to 0.3 µM
11 | C#CCNC(=O)c1ccc(COc2coc(CN3Cc4ccccc4C3)cc2=O)cc1 [Compound 141, 4-(((6-(Isoindolin-2-ylmethyl)-4-oxo-4H-pyran-3-yl)oxy)methyl)-N-(prop-2-yn-1-yl)benzamide] | 0.301 to 2 µM
12 | CCCCCCNC(=O)c1ccc(COc2coc(CN3Cc4ccccc4C3)cc2=O)cc1 [Compound 142, N-Hexyl-4-(((6-(isoindolin-2-ylmethyl)-4-oxo-4H-pyran-3-yl)oxy)methyl)-benzamide] | 0.15 to 0.3 µM
13 | CC(=O)OCC(C)(C)NC(=O)c1ccc(COc2coc(CN3Cc4ccccc4C3)cc2=O)cc1 [Compound 143, 2-(4-(((6-(Isoindolin-2-ylmethyl)-4-oxo-4H-pyran-3-yl)oxy)methyl)benzamido)-2-methylpropyl acetate] | 0.15 to 0.3 µM
14 | C=Cc1ccc(COc2coc(CN3Cc4ccccc4C3)cc2=O)cc1 [Compound 144, 2-(Isoindolin-2-ylmethyl)-5-((4-vinylbenzyl)oxy)-4H-pyran-4-one] | 0.301 to 2 µM
15 | O=C(NCCCCO)c1ccc(COc2coc(CN3Cc4ccccc4C3)cc2=O)cc1 [Compound 145, N-(4-Hydroxybutyl)-4-(((6-(isoindolin-2-ylmethyl)-4-oxo-4H-pyran-3-yl)oxy)-methyl)benzamide] | 0.301 to 2 µM
16 | CNC(=O)/C=C/c1ccc(COc2coc(CN3CCc4ccccc4C3)cc2=O)cc1 [Compound 148, (E)-3-(4-(((6-((3,4-Dihydroisoquinolin-2(1H)-yl)methyl)-4-oxo-4H-pyran-3-yl)oxy)methyl)phenyl)-N-methylacrylamide] | 0.301 to 2 µM
17 | O=C(c1ccc(COc2coc(CN3CCc4ccccc4C3)cc2=O)cc1)N1CCCC(O)C1 (stereo not shown) [Compound 149, 2-((3,4-Dihydroisoquinolin-2(1H)-yl)methyl)-5-((4-(3-hydroxypiperidine-1-carbonyl)benzyl)oxy)-4H-pyran-4-one] | 0.301 to 2 µM
18 | O=C(c1ccc(COc2coc(CN3Cc4ccc(F)cc4C3)cc2=O)cc1)N1CCC1 [Compound 150, 5-((4-(Azetidine-1-carbonyl)benzyl)oxy)-2-((5-fluoroisoindolin-2-yl)methyl)-4H-pyran-4-one] | 0.301 to 2 µM

The remaining lines, values ahead:

Row | IC50 | Compound
19 | < 0.15 µM | O=c1cc(CN2Cc3ccc(C(F)(F)F)cc3C2)occ1OCc1ccc(C2(O)COC2)cc1 [Compound 116, 5-((4-(3-Hydroxyoxetan-3-yl)benzyl)oxy)-2-((5-(trifluoromethyl)isoindolin-2-yl)methyl)-4H-pyran-4-one]
20 | 0.15 to 0.3 µM | CN(C)C(=O)c1ccc(COc2coc(CN3Cc4ccccc4C3)cc2=O)cc1 [Compound 120, 4-(((6-(Isoindolin-2-ylmethyl)-4-oxo-4H-pyran-3-yl)oxy)methyl)-N,N-dimethylbenzamide]
21 | 0.15 to 0.3 µM | COc1ccc(COc2coc(CN3CCc4ccccc4C3)cc2=O)cc1 [Compound 121, 2-((3,4-Dihydroisoquinolin-2(1H)-yl)methyl)-5-((4-methoxybenzyl)oxy)-4H-pyran-4-one]
22 | < 0.15 µM | O=C(c1ccc(COc2coc(CN3Cc4ccccc4C3)cc2=O)cc1)N1CCCC1 [Compound 122, 2-(Isoindolin-2-ylmethyl)-5-((4-(pyrrolidine-1-carbonyl)benzyl)oxy)-4H-pyran-4-one]
23 | 0.15 to 0.3 µM | CN(C)C(=O)c1ccc(COc2coc(CN3CCc4cc(F)ccc4C3)cc2=O)cc1 [Compound 124, 4-(((6-((6-Fluoro-3,4-dihydroisoquinolin-2(1H)-yl)methyl)-4-oxo-4H-pyran-3-yl)oxy)methyl)-N,N-dimethylbenzamide]
24 | 0.15 to 0.3 µM | CCN(CC)C(=O)c1ccc(COc2coc(CN3Cc4ccccc4C3)cc2=O)cc1 [Compound 126, N,N-Diethyl-4-(((6-(isoindolin-2-ylmethyl)-4-oxo-4H-pyran-3-yl)oxy)methyl)-benzamide]
25 | 0.15 to 0.3 µM | CN(C)C(=O)c1ccc(COc2coc(CN3Cc4ccc(F)cc4C3)cc2=O)cc1 [Compound 127, 4-(((6-((5-Fluoroisoindolin-2-yl)methyl)-4-oxo-4H-pyran-3-yl)oxy)methyl)-N,N-dimethylbenzamide]
26 | 0.15 to 0.3 µM | O=C(c1ccc(COc2coc(CN3Cc4ccccc4C3)cc2=O)cc1)N1CCCCC1 [Compound 128, 2-(Isoindolin-2-ylmethyl)-5-((4-(piperidine-1-carbonyl)benzyl)oxy)-4H-pyran-4-one]
27 | < 0.15 µM | O=C(c1ccc(COc2coc(CN3Cc4ccccc4C3)cc2=O)cc1)N1CCC1 [Compound 129, 5-((4-(Azetidine-1-carbonyl)benzyl)oxy)-2-(isoindolin-2-ylmethyl)-4H-pyran-4-one]
28 | < 0.15 µM | O=C(c1ccc(COc2coc(CN3Cc4ccc(Br)cc4C3)cc2=O)cc1)N1CCCC1 [Compound 130, 2-((5-Bromoisoindolin-2-yl)methyl)-5-((4-(pyrrolidine-1-carbonyl)benzyl)oxy)-4H-pyran-4-one]
29 | < 0.15 µM | CC(C)(C)NC(=O)c1ccc(COc2coc(CN3Cc4ccccc4C3)cc2=O)cc1 [Compound 131, N-(tert-Butyl)-4-(((6-(isoindolin-2-ylmethyl)-4-oxo-4H-pyran-3-yl)oxy)methyl)-benzamide]
30 | < 0.15 µM | CC(C)N(C(=O)c1ccc(COc2coc(CN3Cc4ccccc4C3)cc2=O)cc1)C(C)C [Compound 134]
31 | < 0.15 µM | CN(C)C(=O)c1ccc(COc2coc(CN3Cc4ccc(Cl)cc4C3)cc2=O)cc1 [Compound 137, 4-(((6-((5-Chloroisoindolin-2-yl)methyl)-4-oxo-4H-pyran-3-yl)oxy)methyl)-N,N-dimethylbenzamide]
32 | < 0.15 µM | COc1ccc2c(c1)CN(Cc1cc(=O)c(OCc3ccc(C(=O)N(C)C)cc3)co1)C2 [Compound 138, 4-(((6-((5-Methoxyisoindolin-2-yl)methyl)-4-oxo-4H-pyran-3-yl)oxy)methyl)-N,N-dimethylbenzamide]
33 | < 0.15 µM | CN(C)C(=O)c1ccc(COc2coc(CN3Cc4ccc(C(F)(F)F)cc4C3)cc2=O)cc1 [Compound 139, N,N-Dimethyl-4-(((4-oxo-6-((5-(trifluoromethyl)isoindolin-2-yl)methyl)-4H-pyran-3-yl)oxy)methyl)benzamide]
34 | < 0.15 µM | CN(C)C(=O)/C=C/c1ccc(COc2coc(CN3Cc4ccccc4C3)cc2=O)cc1 [Compound 146, (E)-3-(4-(((6-(Isoindolin-2-ylmethyl)-4-oxo-4H-pyran-3-yl)oxy)methyl)phenyl)-N,N-dimethylacrylamide]
